The results in this text go back to ChEMBL document CHEMBL1155559, “Hepatoprotective diastereomeric lignans from Saururus chinensis herbs” (J Nat Prod, 2000).

The assay deals with Hepatocyte. Kind of assay: Hepatoprotective activity in Wistar rat CCL4-damaged hepatocyte assessed as blockade of glutamic pyruvic transaminase release at 100 uM relative to control. Format: functional, cell-based.

As for `C[C@@H]1[C@H]2c3cc4c(cc3O[C@@]35OCOC3=CC(=O)[C@@H](C[C@H]1C)[C@@H]25)OCO4`, the Activity is 75.9%.

For the compound `C[C@@H]1[C@H]2c3cc4c(cc3O[C@@]35OCOC3=CC(=O)[C@H](C[C@H]1C)[C@H]25)OCO4` [SAUCHINONE A], the Activity amounted to 78.2%.

As to `C[C@@H]1[C@H]2c3cc4c(cc3O[C@@]35OCOC3=CC(=O)[C@H](C[C@H]1C)[C@@H]25)OCO4` [SAUCHINONE], the Activity is listed as 70.1%.

For `COc1cc(C2Oc3cc([C@H]4Oc5cc(O)cc(O)c5C(=O)[C@@H]4O)ccc3OC2CO)ccc1O` (some centres undefined) [SILIBININ], the Activity is listed as 76.6%.
